# From patent publication US20250179073A1, “TRICYCLIC HETEROCYCLE COMPOUNDS AS IAP ANTAGONISTS” (Ascentage Pharma (Suzhou) Co., Ltd., priority 2022, published 2025)
# pIC50: −log10 of the molar value.
# System: MDA-MB-231 cells
# Test: Cell proliferation assay (CellTiter-Glo), MDA-MB-231
# Type: cell-based
# Details: Homo sapiens, MDA-MB-231, 72 h, 72 h treatment, Celltiter-Glo luminescence
# Protocol: Example 238: Cell Proliferation Assay
# MDA-MB-231 and EVSA-T cells (10000 cells/well) were plated onto 96-well plates (Corning, Cat #3917) in 95 μL of medium (RPMI-1640 containing 10% FBS and MEM containing 10% FBS, respectively). Compounds with various concentrations ([…]) were added to the wells. After treatment for 72 h, 30 μL of Celltiter-Glo reagent (Promega, Cat #G7573) was added and incubated at room temperature for 15 min, then the luminescent signal was determined using a microplate reader (Biotek, SynergyH1). The inhibitor dose-response curves were analyzed using normalized IC50 regression curve fitting with control based normalization.
row,Compound,pIC50
1,"C[C@@H]1CN(CC(=O)N2CC(C)(C)c3c2cc(Cc2ccc(F)cc2)c2nc(=O)[nH]n32)[C@@H](CN2CCOC[C@H]2C)CN1 [Compound 131, 4-(4-fluorobenzyl)-8,8-dimethyl-6-(2-((2R,5R)-5-methyl-2-(((R)-3-methylmorpholino)methyl)piperazin-1-yl)acetyl)-7,8-dihydro-1H-pyrrolo[2,3-e][1,2,4]triazolo[1,5-a]pyridin-2(6H)-one]",5.56
2,"CC(=O)N1CCN(C[C@H]2CN[C@H](C)CN2CC(=O)N2CC(C)(C)c3c2cc(Cc2ccc(F)cc2)c2nn(CC(C)(C)O)c(=O)n32)[C@H](C)C1 [Compound 282, 6-(2-((2R,5R)-2-(((R)-4-acetyl-2-methylpiperazin-1-yl)methyl)-5-methylpiperazin-1-yl)acetyl)-4-(4-fluorobenzyl)-2-(2-hydroxy-2-methylpropyl)-8,8-dimethyl-2,6,7,8-tetrahydro-1H-pyrrolo[2,3-e][1,2,4]triazolo[4,3-a]pyridin-1-one]",6.18
3,"C[C@@H]1CN(CC(=O)N2CC(C)(C)c3c2cc(N2CCN(C)c4cc(F)ccc42)c2ncnn32)[C@@H](CN2CCOC[C@H]2C)CN1 [Compound 194, 1-(4-(6-fluoro-4-methyl-3,4-dihydroquinoxalin-1(2H)-yl)-8,8-dimethyl-7,8-dihydro-6H-pyrrolo[2,3-e][1,2,4]triazolo[1,5-a]pyridin-6-yl)-2-((2R,5R)-5-methyl-2-(((R)-3-methylmorpholino)methyl)piperazin-1-yl)ethan-1-one]",6.17
4,"C[C@@H]1CN(CC(=O)N2CC(C)(C)c3c2cc(Cc2ccc(F)cc2)n2c(C(F)(F)F)nnc32)[C@@H](CN2CCOC[C@H]2C)CN1 [Example 22, 1-(5-(4-fluorobenzyl)-9,9-dimethyl-3-(trifluoromethyl)-8,9-dihydro-7H-pyrrolo[3,2-c][1,2,4]triazolo[4,3-a]pyridin-7-yl)-2-((2R,5R)-5-methyl-2-(((R)-3-methylmorpholino)methyl)piperazin-1-yl)ethan-1-one]",5.43
5,"Cc1nc(C)c(Cc2cc3c(n4ncnc24)C(C)(C)CN3C(=O)CN2C[C@@H](C)NC[C@@H]2CN2CCOC[C@H]2C)s1 [Compound 158, 1-(4-((2,4-dimethylthiazol-5-yl)methyl)-8,8-dimethyl-7,8-dihydro-6H-pyrrolo[2,3-e][1,2,4]triazolo[1,5-a]pyridin-6-yl)-2-((2R,5R)-5-methyl-2-(((R)-3-methylmorpholino)methyl)piperazin-1-yl)ethan-1-one]",6.14
6,"C[C@@H]1CN(CC(=O)N2CC(C)(C)c3c2cc(Cc2ccc(F)cc2)c2c(Cl)cnn32)[C@@H](CN2CCOC[C@H]2C)CN1 [Compound 106, 1-(3-chloro-4-(4-fluorobenzyl)-8,8-dimethyl-7,8-dihydro-6H-pyrazolo[1,5-a]pyrrolo[2,3-e]pyridin-6-yl)-2-((2R,5R)-5-methyl-2-(((R)-3-methylmorpholino)methyl)piperazin-1-yl)ethan-1-one]",6.41

# The next compounds have a higher pIC50 than those just listed; values first:
row,pIC50,Compound
1,6.60,"C[C@@H]1CN(CC(=O)N2CC(C)(C)c3c2cc(Cc2ccc(F)cc2)c2nn(CC(C)(C)O)c(=O)n32)[C@@H](CN2C[C@H]3C[C@@H]2CO3)CN1 [Compound 284, 6-(2-((2R,5R)-2-(((1R,4R)-2-oxa-5-azabicyclo[2.2.1]heptan-5-yl)methyl)-5-methylpiperazin-1-yl)acetyl)-4-(4-fluorobenzyl)-2-(2-hydroxy-2-methylpropyl)-8,8-dimethyl-2,6,7,8-tetrahydro-1H-pyrrolo[2,3-e][1,2,4]triazolo[4,3-a]pyridin-1-one]"
2,7.06,"C[C@@H]1CN(CC(=O)N2CC(C)(C)c3c2cc(Cc2ccc(F)cc2)c2ncnn32)[C@@H](CN2CCC(F)(F)C[C@H]2C)CN1 [Compound 75, 2-((2R,5R)-2-(((R)-4,4-difluoro-2-methylpiperidin-1-yl)methyl)-5-methylpiperazin-1-yl)-1-(4-(4-fluorobenzyl)-8,8-dimethyl-7,8-dihydro-6H-pyrrolo[2,3-e][1,2,4]triazolo[1,5-a]pyridin-6-yl)ethan-1-one]"
3,6.49,"C[C@@H]1CN(CC(=O)N2CC(C)(C)c3c2cc(Cc2ccc(F)cc2)c2nc(C(F)(F)F)cn32)C(Cn2ccnc2C(F)(F)F)CN1 (stereo in doubt) [Compound 177, 1-(4-(4-fluorobenzyl)-8,8-dimethyl-2-(trifluoromethyl)-7,8-dihydro-6H-imidazo[1,2-a]pyrrolo[2,3-e]pyridin-6-yl)-2-((2S,5R)-5-methyl-2-((2-(trifluoromethyl)-1H-imidazol-1-yl)methyl)piperazin-1-yl)ethan-1-one]"
4,6.92,"C[C@@H]1CN(CC(=O)N2CC(C)(C)c3c2cc(Cc2ccc(F)cc2)c2nc(C(F)(F)F)cn32)[C@@H](CN2CCN(CC#N)C[C@H]2C)CN1 [Compound 175, 2-((R)-4-(((2R,5R)-1-(2-(4-(4-fluorobenzyl)-8,8-dimethyl-2-(trifluoromethyl)-7,8-dihydro-6H-imidazo[1,2-a]pyrrolo[2,3-e]pyridin-6-yl)-2-oxoethyl)-5-methylpiperazin-2-yl)methyl)-3-methylpiperazin-1-yl)acetonitrile]"
5,7.02,"CC(C)c1nc2c(Cc3ccc(F)cc3)cc3c(n2n1)C(C)(C)CN3C(=O)CN1C[C@@H](C)NC[C@@H]1CN1CCOC[C@H]1C [Compound 171, 1-(4-(4-fluorobenzyl)-2-isopropyl-8,8-dimethyl-7,8-dihydro-6H-pyrrolo[2,3-e][1,2,4]triazolo[1,5-a]pyridin-6-yl)-2-((2R,5R)-5-methyl-2-(((R)-3-methylmorpholino)methyl)piperazin-1-yl)ethan-1-one]"
6,7.17,"COC(=O)N1CCN(C[C@H]2CN[C@H](C)CN2CC(=O)N2CC(C)(C)c3c2cc(Cc2ccc(F)cc2)c2nn(CC(C)(C)O)c(=O)n32)[C@H](C)C1 [Compound 280, methyl (R)-4-(((2R,5R)-1-(2-(4-(4-fluorobenzyl)-2-(2-hydroxy-2-methylpropyl)-8,8-dimethyl-1-oxo-1,2,7,8-tetrahydro-6H-pyrrolo[2,3-e][1,2,4]triazolo[4,3-a]pyridin-6-yl)-2-oxoethyl)-5-methylpiperazin-2-yl)methyl)-3-methylpiperazine-1-carboxylate]"
7,6.46,"C[C@@H]1CN(CC(=O)N2CC(C)(C)c3c2cc(Cc2ccc(F)cc2)c2nn(CC(N)=O)c(=O)n32)[C@@H](CN2CCOC[C@H]2C)CN1 [Compound 217, 2-(4-(4-fluorobenzyl)-8,8-dimethyl-6-(2-((2R,5R)-5-methyl-2-(((R)-3-methylmorpholino)methyl)piperazin-1-yl)acetyl)-1-oxo-7,8-dihydro-1H-pyrrolo[2,3-e][1,2,4]triazolo[4,3-a]pyridin-2(6H)-yl)acetamide]"
8,6.68,"C[C@@H]1CN(CC(=O)N2CC(C)(C)c3c2cc(Cc2ccc(F)cc2)c2nc(N4CCOCC4=O)nn32)[C@@H](CN2CCOC[C@H]2C)CN1 [Compound 208, 4-(4-(4-fluorobenzyl)-8,8-dimethyl-6-(2-((2R,5R)-5-methyl-2-(((R)-3-methylmorpholino)methyl)piperazin-1-yl)acetyl)-7,8-dihydro-6H-pyrrolo[2,3-e][1,2,4]triazolo[1,5-a]pyridin-2-yl)morpholin-3-one]"
